Columns and labels:
HEK293-TrLR cells = test: HDR and NHEJ assay using Traffic Light Reporter; type: cell-based, human
Experimental: TrLR-integrated HEK293 cells were selected through exposure to 5 μg/ml puromycin for 2 weeks. […] 8 hours following this procedure, cells were transfected with pCVL SFFV d14GFP Donor (Addgene Cat #31475), pCBASceI (Addgene Cat #26477)), or Donor+SceI using Lipofectamine 3000. 72 hours post-transfection, cells were trypsinized, collected, and analyzed with an Attune NxT flow cytometer (Thermofisher). To quantify the DNA repair events, ˜10,000-30,000 cells were acquired on an Attune NxT cytometer and analyzed using FCS Express software. Single cell events were determined by gating on the area against the width of the forward scatter pulse signal. Debris removal was performed by excluding events with very low forward and side scatter. For determining % of GFP and mCherry positive cells we established positive and negative populations using mock transfections as negative controls and GFP or mCherry transfected samples as Fluorescence Minus One controls.

DDR signaling [1] = test: DDR signaling immunoblot in HEK293 cells; type: cell-based, human; conditions: HEK293, 2 μM KU-55933 1 hr, cGAMP 16 hours
ATM = ATM (Homo sapiens, UniProt Q13315); conditions: recombinant ATM and TBK1; 25 μM ATM inhibitor, 10 μM TBK1 inhibitor
Sequence of ATM (Q13315 whole entry): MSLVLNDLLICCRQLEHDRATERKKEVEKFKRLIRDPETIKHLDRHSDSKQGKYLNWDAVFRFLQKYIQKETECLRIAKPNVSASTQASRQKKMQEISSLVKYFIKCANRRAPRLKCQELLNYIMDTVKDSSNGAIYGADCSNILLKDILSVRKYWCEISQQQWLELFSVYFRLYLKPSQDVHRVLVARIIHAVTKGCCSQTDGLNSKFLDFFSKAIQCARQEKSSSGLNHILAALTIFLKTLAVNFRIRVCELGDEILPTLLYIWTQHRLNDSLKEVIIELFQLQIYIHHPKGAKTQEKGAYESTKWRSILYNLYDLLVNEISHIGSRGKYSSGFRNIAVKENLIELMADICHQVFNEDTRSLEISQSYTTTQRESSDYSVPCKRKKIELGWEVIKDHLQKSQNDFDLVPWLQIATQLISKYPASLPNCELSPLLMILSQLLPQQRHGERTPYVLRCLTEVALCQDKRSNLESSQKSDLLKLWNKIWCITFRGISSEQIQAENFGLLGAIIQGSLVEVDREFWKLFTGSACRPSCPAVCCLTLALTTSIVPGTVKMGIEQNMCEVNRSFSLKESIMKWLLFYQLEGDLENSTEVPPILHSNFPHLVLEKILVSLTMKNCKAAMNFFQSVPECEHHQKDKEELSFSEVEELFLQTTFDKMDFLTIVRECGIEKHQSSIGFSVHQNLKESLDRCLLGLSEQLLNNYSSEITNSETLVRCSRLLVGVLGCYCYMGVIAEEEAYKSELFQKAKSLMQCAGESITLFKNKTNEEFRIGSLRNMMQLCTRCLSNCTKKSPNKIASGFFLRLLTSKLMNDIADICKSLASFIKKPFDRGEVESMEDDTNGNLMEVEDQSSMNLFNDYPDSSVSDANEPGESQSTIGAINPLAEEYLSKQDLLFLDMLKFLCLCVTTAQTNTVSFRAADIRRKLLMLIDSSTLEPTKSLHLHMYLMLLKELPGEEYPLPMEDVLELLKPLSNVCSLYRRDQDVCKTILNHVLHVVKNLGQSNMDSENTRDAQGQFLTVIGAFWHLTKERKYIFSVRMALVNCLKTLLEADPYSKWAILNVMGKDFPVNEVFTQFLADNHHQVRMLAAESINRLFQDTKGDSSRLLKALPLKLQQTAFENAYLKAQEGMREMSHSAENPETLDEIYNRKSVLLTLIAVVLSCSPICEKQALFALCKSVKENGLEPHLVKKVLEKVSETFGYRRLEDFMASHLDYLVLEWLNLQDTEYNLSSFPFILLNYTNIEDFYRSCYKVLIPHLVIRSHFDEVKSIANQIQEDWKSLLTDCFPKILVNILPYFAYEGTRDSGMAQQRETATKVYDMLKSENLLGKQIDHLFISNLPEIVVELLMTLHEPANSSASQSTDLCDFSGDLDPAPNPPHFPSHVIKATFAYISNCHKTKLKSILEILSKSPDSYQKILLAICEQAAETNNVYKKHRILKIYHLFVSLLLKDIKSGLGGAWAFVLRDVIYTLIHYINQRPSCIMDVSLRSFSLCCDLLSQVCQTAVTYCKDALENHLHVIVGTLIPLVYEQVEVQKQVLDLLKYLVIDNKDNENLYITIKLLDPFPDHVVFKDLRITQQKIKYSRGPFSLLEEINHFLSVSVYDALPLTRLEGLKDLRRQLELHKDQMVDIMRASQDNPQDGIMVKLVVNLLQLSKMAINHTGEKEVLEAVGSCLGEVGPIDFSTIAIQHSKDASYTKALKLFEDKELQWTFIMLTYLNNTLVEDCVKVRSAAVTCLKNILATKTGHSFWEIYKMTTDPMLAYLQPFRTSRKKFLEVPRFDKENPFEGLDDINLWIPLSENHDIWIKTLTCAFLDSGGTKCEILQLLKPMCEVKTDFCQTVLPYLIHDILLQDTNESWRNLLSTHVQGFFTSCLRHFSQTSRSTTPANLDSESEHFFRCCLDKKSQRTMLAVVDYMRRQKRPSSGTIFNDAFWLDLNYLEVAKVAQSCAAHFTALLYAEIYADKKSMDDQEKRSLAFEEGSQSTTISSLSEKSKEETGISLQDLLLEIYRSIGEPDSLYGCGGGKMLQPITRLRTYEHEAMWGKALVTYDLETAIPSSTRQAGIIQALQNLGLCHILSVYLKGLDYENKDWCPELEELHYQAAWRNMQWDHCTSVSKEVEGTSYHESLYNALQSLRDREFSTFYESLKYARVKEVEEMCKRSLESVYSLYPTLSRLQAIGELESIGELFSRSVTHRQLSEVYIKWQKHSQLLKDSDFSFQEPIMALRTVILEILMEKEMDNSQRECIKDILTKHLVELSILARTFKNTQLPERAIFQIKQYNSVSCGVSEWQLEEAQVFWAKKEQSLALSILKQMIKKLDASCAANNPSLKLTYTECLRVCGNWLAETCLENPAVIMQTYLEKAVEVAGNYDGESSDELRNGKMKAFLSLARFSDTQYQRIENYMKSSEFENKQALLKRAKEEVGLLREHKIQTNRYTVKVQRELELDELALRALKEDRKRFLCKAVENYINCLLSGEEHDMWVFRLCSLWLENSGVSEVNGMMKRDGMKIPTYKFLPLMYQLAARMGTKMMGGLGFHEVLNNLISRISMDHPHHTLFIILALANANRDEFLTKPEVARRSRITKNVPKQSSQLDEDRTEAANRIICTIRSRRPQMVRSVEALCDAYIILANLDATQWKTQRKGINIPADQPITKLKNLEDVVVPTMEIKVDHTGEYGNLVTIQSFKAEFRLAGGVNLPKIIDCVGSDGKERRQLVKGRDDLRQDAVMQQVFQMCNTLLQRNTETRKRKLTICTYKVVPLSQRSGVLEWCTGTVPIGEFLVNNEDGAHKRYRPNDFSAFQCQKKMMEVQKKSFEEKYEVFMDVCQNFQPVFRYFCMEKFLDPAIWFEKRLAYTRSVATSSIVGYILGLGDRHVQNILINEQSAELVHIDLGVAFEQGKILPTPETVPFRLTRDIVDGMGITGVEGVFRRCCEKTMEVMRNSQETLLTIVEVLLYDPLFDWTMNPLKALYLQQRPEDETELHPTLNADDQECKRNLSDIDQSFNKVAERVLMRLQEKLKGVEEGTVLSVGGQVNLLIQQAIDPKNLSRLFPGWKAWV
Experimental: 2× laemmli buffer was added and the mixture which was then incubated at 98° C. for 10 mins. The protein mixtures were separated on a 7.5% SDS/PAGE gel and immunoblotted for anti phospho-ATM (Ser1981) antibody to assess phosphorylation status if ATM. To test the effect of inhibitors on recombinant TBK1 mediated ATM phosphorylation, 25 μM ATM inhibitor, and 10 μM TBK1 inhibitor and was pre-incubated with recombinant ATM or recombinant TBK1 (TBK1 inhibitor) before setting up the kinase assay as described above.

cell cycle progression = test: Cell cycle analysis by flow cytometry (BrdU, propidium iodide); type: cell-based, human
Experimental: Cells were washed with cold PBS and resuspended in 0.5 ml PBS to achieve a single cell suspension. Cells were fixed in a tube containing 4.5 ml 70% ethanol kept at 4° C. overnight. Cells were collected by centrifugation at 500 g for 5 minutes and washed twice with PBS. Washed cells were then stained with 1 ml of freshly prepared staining solution containing propidium iodide (10 μg/ml), DNase-free RNaseA (100 μg/ml), and 0.1% (v/v) Triton X-100 before being subjected to flow cytometry measurement. To determine percentage of cell population in various cell cycle stage, ˜10,000-30,000 cells were acquired on an Attune NxT cytometer and analyzed using FCS Express software. Cell cycle analysis was performed on propidium iodide stained cells and single cell events were determined by gating on the area against the width of the propidium iodide pulse signal. DNA cell cycle modeling and fit was performed using the Multicycle AV plugin (Phoenix Flow Systems).
Cells were fixed and stained to detect BrdU incorporation by flow cytometry following the manufacturer's protocol (FITC BrdU Flow Kit, BD Biosciences, Cat #559619).

DDR signaling [2] = test: DDR signaling immunoblotting in THP1 cells; conditions: for DDR induction in cells lacking STING or TBK1: STING−/− or shTBK1 cells
DDR signaling [3] = test: DDR signaling immunoblotting in primary mouse embryonic fibroblasts; conditions: for DDR signaling (γH2AX): cGAS−/− and cGAS GS198AA primary MEFs vs WT
cGAMP = test: 2′3′-cGAMP ELISA in THP1 cells; type: cell-based, human; conditions: WT THP1, 1 μM Doxorubicin, 1 hr
Crassostrea virginica = test: DDR in oysters after adductor muscle injection; type: in vivo; conditions: hemocytes; cGAMP 25 μg/50 gm, doxorubicin 1 μg/50 gm oyster weight, 16 hours
Experimental: Oysters: Wild adult eastern oysters (Crassostrea virginica) of both male and female sexes ranging from 2 cm-7 cm in length (1 to 3 years in age) were collected from a natural oyster reef on Virgnia's Eastern Shore. Following collection, the diploid oysters were placed on ice and transported approximately 3 h to the University of Virginia main campus in Charlottesville, VA. There they were stored in an aerated aquarium containing water supplemented with Instant Ocean® Aquarium Sea Salt (50 gm/l). […] Treated oysters were kept at 4° C. in the dark for 16 hours after which they were shucked, had their hemolymph/tissues harvested for analysis by western blotting, and dead oyster and shell were disposed of.

cGAS, STING, and TBK1 = conditions: doxorubicin 2 μM 6 hours; cGAMP 16 hours
Experimental: Cell Fractionation: THP1 cells were treated as indicated, then nuclear and cytoplasmic fractions were isolated using NE-PER™ Nuclear and Cytoplasmic Extraction Reagents (Thermo Scientific, Catalogue #78833) following the manufacturer's protocol. 20 g of cytoplasmic and nuclear proteins were used for immunoblotting.

cGAS [4] = test: HA-cGAS co-immunoprecipitation in HA-cGAS-reconstituted cGAS−/− MEFs; type: cell-based, mouse; conditions: doxorubicin 2 μM 6 hours
Experimental: Immunoprecipitation: Cells were treated as indicated and were lysed in RIPA buffer. Co-immunoprecipitation experiments were conducted using Dynabeads™ Protein G Immunoprecipitation Kits (Thermo Fisher, Catalogue #10007D) as per the manufacturer's protocol. 50 μl of Dynabead slurry was added to a microfuge tube and placed on a magnet to separate the solution. Beads were washed in 200 μl PBS with 0.1% Tween20 (3 times) before 5 μg antibody along with […] protein lysate diluted in PBS-tween20 to a final volume of 500 μl was added to the beads and incubated overnight at 4° C. with rotation. Beads were collected by magnetic separation and washed 3 times with wash buffer (10 mM Tris; adjust to pH 7.4, 1 mM EDTA; pH 8.0, 150 mM NaCl). Finally, bead-bound proteins were eluted by boiling in 1× Laemmli buffer and samples analyzed by western blotting.

γH2AX = γH2AX immunofluorescence (human RPE, THP1 cells); type: cell-based
Experimental: Immunofluorescence Staining: 16,500 adherent cells/cm^2 were plated on a gelatin coated 8-chamber slide (VWR, Catalogue #62407-296) and treated as indicated. Media was removed and cells were washed with 1×PBS with Ca^2+/Mg^2+ and fixed with 4% PFA for 20 minutes. Fixed cells were permeabilized with PBS+0.1% Triton-X and washed 3 times with PBS+0.1% Tween20. After treatment as indicated, non-adherent THP1 cells were collected by centrifugation, washed in cold PBS and fixed in PFA. Post-fixation, they were washed with PBS, spotted on gelatin coated “PTFE” Printed Slides (Electron Microscopy Sciences, Cat #63424-06), and air-dried. For γH2AX staining, permeabilized cells were blocked in Serum-free DAKO Protein Block (Agilent, Catalogue #X0909) for 1 hr at room temperature. Cells were incubated in primary antibody (γH2AX, 1:500; anti-HA, 1:100; Table 1) in DAKO antibody diluent at 4° C. overnight on a rocker platform. U2OS-STING cells undergoing Rad51 staining were first fixed in methanol for 20 minutes in −20° C., blocked for 1 hr with donkey block (2% normal donkey serum, 1% BSA, 0.1% Triton X 100, 0.05% Tween20, 0.05% Sodium Azide in PBS), then finally incubated in an anti-Rad51 antibody overnight at 4° C. (Bio-academia Cat #70-001, 1:6000 in 5% milk in TBST). For RPA70 staining, cells were fixed in 4% PFA at room temperature for 20 minutes and blocked in Cell Signaling blocking buffer (1×PBS/5% normal donkey serum/0.3% Triton™ X-100) for 1 hr in room temperature then incubated in an RPA70 antibody (Cell Signaling Cat #2267, 1:50 in blocking buffer) overnight at 4° C. Primary antibody was washed 3 times and incubated with secondary antibodies (Invitrogen, Alexa 555, 488) for 1 hr at room temperature. Coverslips were mounted on the cells with ProLong™ Gold Antifade mounting media with DAPI (Thermofisher, Catalogue #P36935). All images were obtained by confocal microscopy (Nikon, C2).

Nematostella vectensis = test: DDR in starlet sea anemones; type: in vivo; conditions: whole animals; cGAMP in digitonin solution 10 minutes; doxorubicin 2 μM; 16 hours
Description: Starlet sea anemones: Wild type, laboratory maintained, Self-sustaining Nematostella vectensis culture containing of 3-6 months old male and female animals (Putnam et al., 2007) was a kind gift from Timothy J. Jegla (Penn State University Department of Biology). They were maintained in 6-well plates containing water with Instant Ocean® Aquarium Sea Salt (50 gm/l) and fed brine shrimp. […] Permeabilization solution was removed and the animals returned to maintenance sea salt water. Doxorubicin was added to the maintenance sea salt water to a final concentration of 2 μM. 16 hours post treatment. N. vectensis were collected and washed once with cold PBS before the addition of 200 μl RIPA buffer. Samples were homogenized by sonication and centrifuged at 4° C. to remove debris. Soluble lysates were quantified for protein analysis by western blot.

NAD^+ = test: NAD+ quantification; type: cell-based, human; conditions: THP1, 2 mM, 4 mM and 8 mM NAM, 18 hours
PARylation = test: PolyADP-ribosylation (PARylation) immunoblot; type: cell-based, human; conditions: THP1, 2 mM NAM 18 hours, 250 μM H2O2 10 minutes
Description: Cells were collected by centrifugation, washed once with ice-cold PBS, lysed in RIPA buffer and analyzed by western blot to detect PARylation using pADPr Antibody (Santa Cruz sc-56198).

PARP = PARP activity assay; type: cell-based, human
Experimental: Post cGAMP treatment, cells were collected by centrifugation and washed with cold PBS once and resuspended in Cell Extraction Buffer. PARP activity was measured using the Chemiluminescent Assay Kit (R&D, Catalog Number: 4685-096-K) following manufacturer's protocol.

cGAS [5] = conditions: Liu et al., 2018; cited from earlier work
U2OS-STING cells = test: RAD51 and RPA70 foci in EdU+ U2OS-STING cells; type: cell-based, human; conditions: EdU-positive S-phase cells, Camptothecin 5 μM 16 hours
Experimental: Immunofluorescence Staining: 16,500 adherent cells/cm^2 were plated on a gelatin coated 8-chamber slide (VWR, Catalogue #62407-296) and treated as indicated. Media was removed and cells were washed with 1×PBS with Ca^2+/Mg^2+ and fixed with 4% PFA for 20 minutes. Fixed cells were permeabilized with PBS+0.1% Triton-X and washed 3 times with PBS+0.1% Tween20. After treatment as indicated, non-adherent THP1 cells were collected by centrifugation, washed in cold PBS and fixed in PFA. Post-fixation, they were washed with PBS, spotted on gelatin coated “PTFE” Printed Slides (Electron Microscopy Sciences, Cat #63424-06), and air-dried. For γH2AX staining, permeabilized cells were blocked in Serum-free DAKO Protein Block (Agilent, Catalogue #X0909) for 1 hr at room temperature. Cells were incubated in primary antibody (γH2AX, 1:500; anti-HA, 1:100; Table 1) in DAKO antibody diluent at 4° C. overnight on a rocker platform. […]
EdU incorporated cells were detected by confocal microscopy after Click-iT® EdU labeling following the manufacturer's protocol (Click-iT™ EdU Alexa Fluor™ 594 Imaging Kit, Thermo Fisher Cat #C10339).

With `O=c1cc(-c2cccc3c2Sc2ccccc2S3)oc(N2CCOCC2)c1` [KU55933] the “HDR under ATM inhibition alone” value (HEK293-TrLR cells; 25 μM KU-55933) was “impeded HDR in its own right”, the “effect on cGAMP-induced γH2AX and pCHK2” value (DDR signaling [1]) was “suppressed the ability of cGAMP to induce γH2AX and pCHK2” and the “ATM phosphorylation on Ser1981” value (ATM) was “suppressed”. The “effect of ATM inhibitor on cGAMP-induced G1 arrest” value (cell cycle progression; WT THP1, 25 μM KU-55933, cGAMP 24 hours) was “suppressed the ability of cGAMP to induce γH2AX and pCHK2 (FIG. 9A) and to induce G1 arrest”.
For `O=C(NCCCNc1nc(Nc2cccc(CN3CCOCC3)c2)ncc1C1CC1)C1CCC1` [MRT67307], the “effect on cGAMP-induced phosphorylation of ATM (S1981), CHK2, and H2AX” value (DDR signaling [2]; THP1 pretreated with 2 μM TBK1 inhibitor, cGAMP 16 hours) was “suppressed cGAMP-induced phosphorylation of ATM (S1981), CHK2, and H2AX” and the “ATM phosphorylation on Ser1981” value (ATM) was “suppressed”.
For `CC[C@@]1(O)C(=O)OCc2c1cc1n(c2=O)Cc2cc3ccccc3nc2-1` [camptothecin], the “DDR induction in cells lacking STING or TBK1” value (DDR signaling [2]) was “abrogated”, the “phosphorylation of H2AX, ATM, and CHK2” value (DDR signaling [2]; cGAS−/− THP1, camptothecin 2 μM 4 hours) was “all suppressed” and the “DDR signaling (γH2AX)” value (DDR signaling [3]) was “suppressed both in cGAS^−/− and cGAS^(GS198AA) primary MEFs”.
With `COc1cccc2c1C(=O)c1c(O)c3c(c(O)c1C2=O)C[C@@](O)(C(=O)CO)C[C@@H]3O[C@H]1C[C@H](N)[C@H](O)[C@H](C)O1` [doxorubicin] the “DDR induction in cells lacking STING or TBK1” value (DDR signaling [2]) was “abrogated”, the cGAMP production (cGAMP) was “reacted by producing cGAMP” and the “TBK1 phosphorylation (pTBK1)” value (Crassostrea virginica) was “TBK1 phosphorylation”. For the same compound, the γH2AX (Crassostrea virginica) was “elevated levels of γH2AX”, the “nuclear enrichment of TBK1, pTBK1, STING” value (cGAS, STING, and TBK1) was “promoted nuclear enrichment of TBK1 but not STING” and the “nuclear enrichment of cGAS” value (cGAS, STING, and TBK1) was “nuclear enrichment of cGAS”. For the same compound, the “cGAS association with ATM” value (cGAS [4]) was “detected no such interactions”, the “cGAS complex with γH2AX” value (cGAS [4]) was “nuclear translocated cGAS was found in a complex with γH2AX” and the “γH2AX foci in cGAS- and STING-deficient cells” value (γH2AX; doxorubicin-treated THP1 cells) was “significant reduction in the intensity of γH2AX foci”. For the same compound, the γH2AX staining pattern (γH2AX; human RPE cells, doxorubicin 2 hours, cGAMP or HT-DNA 6 hours) was “catalyzed the formation of γH2AX foci characteristic of DSB induction”, the “DDR signaling (γH2AX)” value (DDR signaling [3]) was “suppressed both in cGAS^−/− and cGAS^(GS198AA) primary MEFs” and the “TBK1 phosphorylation (pTBK1)” value (Nematostella vectensis) was “TBK1 phosphorylation”. For the same compound, the γH2AX (Nematostella vectensis) was “elevated levels of γH2AX”.
In the case of `NC(=O)c1cccnc1` [nicotinamide], the “effect on cGAMP-driven inhibition of HDR” value (HEK293-TrLR cells; 2 mM and 4 mM NAM) is reported as “abrogated cGAMP-driven inhibition of protein PARylation and HDR”, the “cellular NAD^+ levels with nicotinamide supplementation” value (NAD^+) is reported as “Boosting cellular NAD^+ levels” and the “effect on cGAMP-driven inhibition of protein PARylation” value (PARylation) is reported as “abrogated cGAMP-driven inhibition of protein PARylation and HDR”. The “effect on cGAMP-driven inhibition of cellular PARP enzymatic activity” value (PARP; THP1, 2 mM, 4 mM and 8 mM NAM, 18 hours) was “overcame cGAMP-driven inhibition of cellular PARP enzymatic activity”.
For `O=C(c1cc(Cc2n[nH]c(=O)c3ccccc23)ccc1F)N1CCN(C(=O)C2CC2)CC1` [olaparib], the “cGAS-PARP1 interactions and DNA damage-induced nuclear cGAS translocation” value (cGAS [5]) is listed as “blocked”.
With `CNCc1ccc(-c2[nH]c3cc(F)cc4c3c2CCNC4=O)cc1` [rucaparib] the HDR (HEK293-TrLR cells; 1 μM PARP inhibitor (Rucaparib)) was “significantly reduced HDR in TrLR reporter cells”, the “DNA damage-induced RAD51 and RPA foci formation” value (U2OS-STING cells) was “suppressed DNA damage-induced RAD51 and RPA foci formation in EdU-positive S-phase cells” and the “abundance of S/G2-phase cells” value (cell cycle progression; THP1 10 μM Rucaparib (propidium iodide), U2OS-STING (EdU)) was “causes increased abundance of S/G2-phase cells”. The “PARP enzymatic activity in cell lysates” value (PARP; THP1, cGAMP 6 hours, Rucaparib 10 μM, 6 hr) was “lower PARP enzymatic activity”.
For Pam3CSK4, the “DDR activation (γH2AX)” value (DDR signaling [3]; WT primary MEF, Pam3CSK4 500 ng/ml 6 hours, HT-DNA 4 ug/6-well 6 hours, 5′ppp-dsRNA 0.5 μg/6 well 6 hours, cGAMP 16 hours) was “failed to stimulate the DDR”.
